We go through 27 molecules from US20220348567A1, “NOVEL OXADIAZOLE COMPOUNDS CONTAINING 5- MEMBERED HETEROAROMATIC RING FOR CONTROLLING OR PREVENTING PHYTOPATHOGENIC FUNGI” (PI INDUSTRIES LTD., priority 2019, published 2022).

Where only a bound is given, the exact number is not on record here.

In one test the test system is Phakopsora pachyrhizi. In words: Phakopsora pachyrhizi test in soybean, greenhouse, preventive activity. Particulars: 24 h, spray one day before inoculation, soybean plants, read-out: control (efficacy, disease severity rating versus untreated control). In kind it is in vivo, Phakopsora pachyrhizi on soybean plants. The method, then:
Compounds were dissolved in 2% dimethyl sulfoxide/acetone and then mixed with water containing emulsifier to the calibrated spray volume of 50 mL. Each spray solution was poured into a spray bottle for further application. To test the preventive activity of the compound, healthy young Soybean plants, raised in the greenhouse, were sprayed with the active compound preparation at the stated application rate inside the spray cabinets using hollow cone nozzles. One day aftertreatment, the plants were inoculated with a conidial suspension containing 2×10^5Phakopsora […]. The inoculated plants were then kept in a greenhouse chamber at 22-24° C. temperature and 80-90% relative humidity for disease expression. A visual assessment of the compound's performance was carried out by rating the disease severity (0-100% scale) on treated plants 3, 7, 10 and 15 days after application. Efficacy (% control) of the compound was calculated by comparing the disease rating in the treatment with the one of the untreated control. The sprayed plants were also assessed for plant damage by recording symptoms like necrosis, chlorosis and stunting.

For the next test, the system named is Parastagonospora nodorum. In words: Parastagonospora nodorum (PARANO) microtiter growth inhibition assay, OD600. Particulars: 18° C., 15-18 days, read-out: control (growth inhibition by OD600). In kind it is cell-based. How it is done: Potato dextrose (PDB) liquid medium (Difco) containing a […] (10^5 spores/ml) spore suspension was prepared. For the inhibition assay, each test compound was solved in dimethyl sulfoxide. 100 μl of the test media-solution was added to a 96-well microtiter plate, consequently, the same volume (100 μl) of spore suspension was added to the well making the final test concentrations and the plate was incubated at 18° C. for 15-18 days. The growth inhibition was evaluated by measuring the OD600. Percent inhibition was calculated with the below formula: I=([…])*100 Where T=treatment, C═control, and B=blank

For `COc1ccc(NC(=O)Cc2cn(-c3ccc(-c4noc(C(F)(F)F)n4)cc3)cn2)cc1` [Compound 2, N-(4-methoxyphenyl)-2-(1-(4-(5-(trifluoromethyl)-1,2,4-oxadiazol-3-yl)phenyl)-1H-imidazol-4-yl)acetamide], in the test on Phakopsora pachyrhizi, the pest or weed control at 500 ppm is at most 70%.

On to `CS(=O)(=NC(=O)c1cnn(-c2ccc(-c3noc(C(F)(F)F)n3)cc2)c1)c1cccc(F)c1` (stereo not drawn) [Compound 23, N-((3-fluorophenyl)(methyl)(oxo)-λ^6-sulfanylidene)-1-(4-(5-(trifluoromethyl)-1,2,4-oxadiazol-3-yl)phenyl)-1H-pyrazole-4-carboxamide], for which the pest or weed control at 500 ppm in the test with Phakopsora pachyrhizi is at most 70%.

As to `CS(=O)(=NC(=O)c1ccn(-c2ccc(-c3noc(C(F)(F)F)n3)cc2)c1)c1ccc(F)cc1` (stereo not drawn) [Compound 27, N-((4-fluorophenyl)(methyl)(oxo)-λ^6-sulfanylidene)-1-(4-(5-(trifluoromethyl)-1,2,4-oxadiazol-3-yl)phenyl)-1H-pyrrole-3-carboxamide], the pest or weed control at 500 ppm with Phakopsora pachyrhizi was at most 70%.

In the case of `FC(F)(F)c1nc(-c2ccc(-n3cnc(CSc4ccccc4)c3)cc2)no1` [Compound 43, 3-(4-(4-((phenylthio)methyl)-1H-imidazol-1-yl)phenyl)-5-(trifluoromethyl)-1,2,4-oxadiazole], in the test on Parastagonospora nodorum, the inhibition (commonly the change of the read-out against control, counted positive when it falls) at 300 ppm is at least 70%.

On to `CS(C)(=O)=NC(=O)c1ccn(-c2ccc(-c3noc(C(F)(F)F)n3)cc2)c1` [Compound 30, N-(dimethyl(oxo)-λ^6-sulfanylidene)-1-(4-(5-(trifluoromethyl)-1,2,4-oxadiazol-3-yl)phenyl)-1H-pyrrole-3-carboxamide], for which, in the test on Parastagonospora nodorum, the inhibition at 300 ppm was at least 70%. Besides, the pest or weed control at 500 ppm in the test with Phakopsora pachyrhizi was at most 70%.

Take `O=C(Cc1cn(-c2ccc(-c3noc(C(F)(F)F)n3)cc2)cn1)NCc1ccccc1` [Compound 4, N-benzyl-2-(1-(4-(5-(trifluoromethyl)-1,2,4-oxadiazol-3-yl)phenyl)-1H-imidazol-4-yl)acetamide]: the pest or weed control at 500 ppm in the test on Phakopsora pachyrhizi was at most 70%.

Take `Cc1cccc(S(C)(=O)=NC(=O)c2ccn(-c3ccc(-c4noc(C(F)(F)F)n4)cc3)c2)c1` (stereo not drawn) [Compound 24, N-(methyl(oxo)(m-tolyl)-λ^6-sulfanylidene)-1-(4-(5-(trifluoromethyl)-1,2,4-oxadiazol-3-yl)phenyl)-1H-pyrrole-3-carboxamide]: the inhibition at 300 ppm in the test with Parastagonospora nodorum was at least 70%.

`COCCS(=O)(=NC(=O)c1ccn(-c2ccc(-c3noc(C(F)(F)F)n3)cc2)c1)c1ccccn1` (stereo not drawn) [Compound 25, N-((2-methoxyethyl)(oxo)(pyridin-2-yl)-λ^6-sulfanylidene)-1-(4-(5-(trifluoromethyl)-1,2,4-oxadiazol-3-yl)phenyl)-1H-pyrrole-3-carboxamide]: the pest or weed control at 500 ppm with Phakopsora pachyrhizi was at most 70%.

As for `O=C(Cc1cn(-c2ccc(-c3noc(C(F)(F)F)n3)cc2)cn1)N1CCCCC1` [Compound 11, 1-(piperidin-1-yl)-2-(1-(4-(5-(trifluoromethyl)-1,2,4-oxadiazol-3-yl)phenyl)-1H-imidazol-4-yl)ethan-1-one], the pest or weed control at 500 ppm with Phakopsora pachyrhizi is at most 70%.

As to `CCOC(=O)Cc1cn(-c2ccc(-c3noc(C(F)(F)F)n3)cc2)cn1` [Compound 1, Ethyl 2-(1-(4-(5-(trifluoromethyl)-1,2,4-oxadiazol-3-yl)phenyl)-1H-imidazol-4-yl)acetate], the pest or weed control at 500 ppm with Phakopsora pachyrhizi was at most 70%.

For the molecule `O=C(Cc1cn(-c2ccc(-c3noc(C(F)(F)F)n3)cc2)cn1)Nc1ccc(Cl)cc1` [Compound 9, N-(4-chlorophenyl)-2-(1-(4-(5-(trifluoromethyl)-1,2,4-oxadiazol-3-yl)phenyl)-1H-imidazol-4-yl)acetamide], the pest or weed control at 500 ppm in the test with Phakopsora pachyrhizi was at most 70%.

As for `O=C(Cc1cn(-c2ccc(-c3noc(C(F)(F)F)n3)cc2)cn1)N1CCCC1` [Compound 3, 1-(pyrrolidin-1-yl)-2-(1-(4-(5-(trifluoromethyl)-1,2,4-oxadiazol-3-yl)phenyl)-1H-imidazol-4-yl)ethan-1-one], in the test with Parastagonospora nodorum, the inhibition at 300 ppm was at least 70%. In the test on Phakopsora pachyrhizi, the pest or weed control at 500 ppm was at most 70%.

For the molecule `O=C(Cc1cn(-c2ccc(-c3noc(C(F)(F)F)n3)cc2)cn1)Nc1ccccc1Br` [Compound 14, N-(2-bromophenyl)-2-(1-(4-(5-(trifluoromethyl)-1,2,4-oxadiazol-3-yl)phenyl)-1H-imidazol-4-yl)acetamide], the pest or weed control at 500 ppm with Phakopsora pachyrhizi is at most 70%.

Turning to `COc1ccc(CNC(=O)Cc2cn(-c3ccc(-c4noc(C(F)(F)F)n4)cc3)cn2)cc1` [Compound 5, N-(4-methoxybenzyl)-2-(1-(4-(5-(trifluoromethyl)-1,2,4-oxadiazol-3-yl)phenyl)-1H-imidazol-4-yl)acetamide], the pest or weed control at 500 ppm with Phakopsora pachyrhizi was at most 70%.

Take `COc1cccc(NC(=O)Cc2cn(-c3ccc(-c4noc(C(F)(F)F)n4)cc3)cn2)c1` [Compound 12, N-(3-methoxyphenyl)-2-(1-(4-(5-(trifluoromethyl)-1,2,4-oxadiazol-3-yl)phenyl)-1H-imidazol-4-yl)acetamide]: in the test on Phakopsora pachyrhizi, the pest or weed control at 500 ppm was at most 70%.

For the molecule `COc1ccnc(S(C)(=O)=NC(=O)c2ccn(-c3ccc(-c4noc(C(F)(F)F)n4)cc3)c2)c1` (stereo not drawn) [Compound 29, N-((4-methoxypyridin-2-yl)(methyl)(oxo)-λ^6-sulfanylidene)-1-(4-(5-(trifluoromethyl)-1,2,4-oxadiazol-3-yl)phenyl)-1H-pyrrole-3-carboxamide], the inhibition at 300 ppm in the test on Parastagonospora nodorum was at least 70%. For the same molecule, the pest or weed control at 500 ppm in the test on Phakopsora pachyrhizi is at most 70%.

Turning to `COc1ccc(S(C)(=O)=NC(=O)c2cnn(-c3ccc(-c4noc(C(F)(F)F)n4)cc3)c2)cc1` (stereo not drawn) [Compound 21, N-((4-methoxyphenyl)(methyl)(oxo)-λ^6-sulfaneylidene)-1-(4-(5-(trifluoromethyl)-1,2,4-oxadiazol-3-yl)phenyl)-1H-pyrazole-4-carboxamide], in the test with Phakopsora pachyrhizi, the pest or weed control at 500 ppm was at most 70%.

`Cc1ccccc1S(C)(=O)=NC(=O)c1cnn(-c2ccc(-c3noc(C(F)(F)F)n3)cc2)c1` (stereo not drawn) [Compound 19, N-(methyl(oxo)(o-tolyl)-λ^6-sulfaneylidene)-1-(4-(5-(trifluoromethyl)-1,2,4-oxadiazol-3-yl)phenyl)-1H-pyrazole-4-carboxamide]: in the test on Phakopsora pachyrhizi, the pest or weed control at 500 ppm was at most 70%.

Consider `CS(=O)(=NC(=O)c1cnn(-c2ccc(-c3noc(C(F)(F)F)n3)cc2)c1)c1ccccc1` (stereo not drawn) [Compound 22, N-(methyl(oxo)(phenyl)-λ^6-sulfaneylidene)-1-(4-(5-(trifluoromethyl)-1,2,4-oxadiazol-3-yl)phenyl)-1H-pyrazole-4-carboxamide], for which the pest or weed control at 500 ppm in the test on Phakopsora pachyrhizi was at most 70%.

As to `COc1ccc(C)c(NC(=O)Cc2cn(-c3ccc(-c4noc(C(F)(F)F)n4)cc3)cn2)c1` [Compound 16, N-(5-methoxy-2-methylphenyl)-2-(1-(4-(5-(trifluoromethyl)-1,2,4-oxadiazol-3-yl)phenyl)-1H-imidazol-4-yl)acetamide], in the test with Parastagonospora nodorum, the inhibition at 300 ppm is at least 70%. The pest or weed control at 500 ppm in the test on Phakopsora pachyrhizi was at most 70%.

`O=C(Cc1cn(-c2ccc(-c3noc(C(F)(F)F)n3)cc2)cn1)Nc1cccnc1` [Compound 13, N-(pyridin-3-yl)-2-(1-(4-(5-(trifluoromethyl)-1,2,4-oxadiazol-3-yl)phenyl)-1H-imidazol-4-yl)acetamide]: the pest or weed control at 500 ppm in the test with Phakopsora pachyrhizi is at most 70%.

For the molecule `COc1cc(F)ccc1NC(=O)Cc1cn(-c2ccc(-c3noc(C(F)(F)F)n3)cc2)cn1` [Compound 17, N-(4-fluoro-2-methoxyphenyl)-2-(1-(4-(5-(trifluoromethyl)-1,2,4-oxadiazol-3-yl)phenyl)-1H-imidazol-4-yl)acetamide], the inhibition at 300 ppm in the test with Parastagonospora nodorum is at least 70%. Further, in the test on Phakopsora pachyrhizi, the pest or weed control at 500 ppm is at most 70%.

As to `O=C(Cc1cn(-c2ccc(-c3noc(C(F)(F)F)n3)cc2)cn1)NCc1ccc(F)cc1` [Compound 6, N-(4-fluorobenzyl)-2-(1-(4-(5-(trifluoromethyl)-1,2,4-oxadiazol-3-yl)phenyl)-1H-imidazol-4-yl)acetamide], in the test with Parastagonospora nodorum, the inhibition at 300 ppm was at least 70%. In the test with Phakopsora pachyrhizi, the pest or weed control at 500 ppm is at most 70%.

With `Cc1ccc(NC(=O)Cc2cn(-c3ccc(-c4noc(C(F)(F)F)n4)cc3)cn2)cc1` [Compound 8, N-(p-tolyl)-2-(1-(4-(5-(trifluoromethyl)-1,2,4-oxadiazol-3-yl)phenyl)-1H-imidazol-4-yl)acetamide], in the test with Phakopsora pachyrhizi, the pest or weed control at 500 ppm was at most 70%.

As to `O=C(Cc1cn(-c2ccc(-c3noc(C(F)(F)F)n3)cc2)cn1)NCc1ccccc1F` [Compound 7, N-(2-fluorobenzyl)-2-(1-(4-(5-(trifluoromethyl)-1,2,4-oxadiazol-3-yl)phenyl)-1H-imidazol-4-yl)acetamide], the pest or weed control at 500 ppm with Phakopsora pachyrhizi was at most 70%.

Turning to `COc1ccccc1S(C)(=O)=NC(=O)c1cnn(-c2ccc(-c3noc(C(F)(F)F)n3)cc2)c1` (stereo not drawn) [Compound 20, N-((2-methoxyphenyl)(methyl)(oxo)-λ^6-sulfaneylidene)-1-(4-(5-(trifluoromethyl)-1,2,4-oxadiazol-3-yl)phenyl)-1H-pyrazole-4-carboxamide], the pest or weed control at 500 ppm in the test on Phakopsora pachyrhizi was at most 70%.

In the case of `O=C(Cc1cn(-c2ccc(-c3noc(C(F)(F)F)n3)cc2)cn1)Nc1cccc(F)c1` [Compound 10, N-(3-fluorophenyl)-2-(1-(4-(5-(trifluoromethyl)-1,2,4-oxadiazol-3-yl)phenyl)-1H-imidazol-4-yl)acetamide], in the test on Phakopsora pachyrhizi, the pest or weed control at 500 ppm is at most 70%.
